In assay [1] the target is EGFR del19/C797S (Homo sapiens, UniProt P00533, C797S/DEL746-750). Description: Biochemical EGFR kinase assay (Lance Ultra TR-FRET), double mutant del19/C797S. The procedure, abridged: (§1)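 In this biochemical assay, phosphorylation after a one-hour room-temperature reaction was detected with europium-labelled anti-phosphopeptide antibody at 2 nM final concentration.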
The target of assay [2] is EGFR del19/T790M/C797S (Homo sapiens, UniProt P00533, C797S/DEL746-750/T790M). In words: Biochemical EGFR kinase assay (Lance Ultra TR-FRET), triple mutant del19/T790M/C797S. The procedure, abridged: as §1
Chain of EGFR del19/T790M/C797S (P00533 with tags, fused parts or gaps DEL746-750/T790M/C797S): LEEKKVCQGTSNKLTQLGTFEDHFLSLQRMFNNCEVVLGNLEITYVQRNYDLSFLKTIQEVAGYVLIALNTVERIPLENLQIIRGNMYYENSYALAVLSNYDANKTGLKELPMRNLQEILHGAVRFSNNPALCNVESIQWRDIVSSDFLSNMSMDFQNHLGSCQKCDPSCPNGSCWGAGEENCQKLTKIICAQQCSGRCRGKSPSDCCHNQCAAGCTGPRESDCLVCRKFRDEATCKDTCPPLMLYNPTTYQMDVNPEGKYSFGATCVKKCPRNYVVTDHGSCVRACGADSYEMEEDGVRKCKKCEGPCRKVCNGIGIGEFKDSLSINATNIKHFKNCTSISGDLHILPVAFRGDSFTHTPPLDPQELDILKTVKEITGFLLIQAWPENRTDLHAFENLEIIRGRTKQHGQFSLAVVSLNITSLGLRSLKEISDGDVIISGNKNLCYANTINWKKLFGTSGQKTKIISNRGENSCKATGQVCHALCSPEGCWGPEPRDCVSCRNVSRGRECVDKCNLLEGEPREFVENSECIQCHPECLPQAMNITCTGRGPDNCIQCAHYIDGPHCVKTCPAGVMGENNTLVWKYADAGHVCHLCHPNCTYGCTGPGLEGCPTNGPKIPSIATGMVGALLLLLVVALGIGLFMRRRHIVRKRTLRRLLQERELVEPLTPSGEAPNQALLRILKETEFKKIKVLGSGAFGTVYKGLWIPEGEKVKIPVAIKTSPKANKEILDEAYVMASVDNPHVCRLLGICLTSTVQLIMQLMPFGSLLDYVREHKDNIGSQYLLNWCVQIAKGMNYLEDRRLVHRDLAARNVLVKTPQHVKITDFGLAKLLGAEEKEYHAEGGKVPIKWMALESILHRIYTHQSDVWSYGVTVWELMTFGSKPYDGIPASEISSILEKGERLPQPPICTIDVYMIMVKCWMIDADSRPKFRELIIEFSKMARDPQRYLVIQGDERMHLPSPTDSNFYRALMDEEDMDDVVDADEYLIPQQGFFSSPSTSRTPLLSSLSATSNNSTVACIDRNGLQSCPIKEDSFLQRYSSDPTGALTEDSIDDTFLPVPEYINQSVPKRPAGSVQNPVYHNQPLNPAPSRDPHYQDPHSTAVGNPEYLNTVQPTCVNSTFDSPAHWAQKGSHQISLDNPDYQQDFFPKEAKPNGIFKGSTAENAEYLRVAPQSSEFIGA
Assay [3] deals with EGFR L858R/C797S (Homo sapiens, UniProt P00533, C797S/L858R). In words: Biochemical EGFR kinase assay (Lance Ultra TR-FRET), double mutant L858R/C797S. The method in brief:
as §1

In assay [4] the target is EGFR L858R/T790M/C797S (Homo sapiens, UniProt P00533, C797S/L858R/T790M). In words: Biochemical EGFR kinase assay (Lance Ultra TR-FRET), triple mutant L858R/T790M/C797S. The method in brief: as §1
Chain of EGFR L858R/T790M/C797S (P00533 25-1210 T790M/C797S/L858R): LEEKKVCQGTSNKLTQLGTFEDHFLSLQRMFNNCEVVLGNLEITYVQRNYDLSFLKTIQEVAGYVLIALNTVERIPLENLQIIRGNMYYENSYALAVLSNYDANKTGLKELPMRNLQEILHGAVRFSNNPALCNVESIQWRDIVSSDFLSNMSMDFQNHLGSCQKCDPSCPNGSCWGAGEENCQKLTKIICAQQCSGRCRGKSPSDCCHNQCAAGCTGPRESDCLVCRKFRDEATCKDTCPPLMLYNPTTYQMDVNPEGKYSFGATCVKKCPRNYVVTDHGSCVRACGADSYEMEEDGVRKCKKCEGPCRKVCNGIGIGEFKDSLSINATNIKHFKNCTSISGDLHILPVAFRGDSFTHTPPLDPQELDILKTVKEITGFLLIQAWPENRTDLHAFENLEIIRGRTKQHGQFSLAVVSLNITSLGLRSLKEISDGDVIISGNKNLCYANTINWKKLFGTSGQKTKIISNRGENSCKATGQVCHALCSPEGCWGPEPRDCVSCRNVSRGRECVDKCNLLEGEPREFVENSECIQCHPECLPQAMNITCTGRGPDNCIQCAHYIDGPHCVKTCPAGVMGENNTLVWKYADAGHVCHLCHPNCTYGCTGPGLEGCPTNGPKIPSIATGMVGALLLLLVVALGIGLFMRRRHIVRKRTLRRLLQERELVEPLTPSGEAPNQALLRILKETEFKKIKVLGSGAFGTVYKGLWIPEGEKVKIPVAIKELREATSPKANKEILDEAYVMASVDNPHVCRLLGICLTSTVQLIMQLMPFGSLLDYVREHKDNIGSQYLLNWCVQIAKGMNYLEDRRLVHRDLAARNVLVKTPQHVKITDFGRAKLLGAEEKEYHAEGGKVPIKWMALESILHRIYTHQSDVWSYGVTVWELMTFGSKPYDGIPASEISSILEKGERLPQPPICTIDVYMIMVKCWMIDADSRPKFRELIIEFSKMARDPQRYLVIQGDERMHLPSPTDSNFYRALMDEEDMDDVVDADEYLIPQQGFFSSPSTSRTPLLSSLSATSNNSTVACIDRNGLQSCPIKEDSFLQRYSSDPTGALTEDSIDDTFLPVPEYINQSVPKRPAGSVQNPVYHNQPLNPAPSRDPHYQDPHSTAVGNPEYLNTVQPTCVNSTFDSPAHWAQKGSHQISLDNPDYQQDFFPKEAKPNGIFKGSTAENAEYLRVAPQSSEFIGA
Assay [5] addresses EGFR wildtype (WT) (Homo sapiens, UniProt P00533). In words: Biochemical EGFR kinase assay (Lance Ultra TR-FRET), wildtype. The method in brief: as §1
[6] abbreviates: IC50 del19/C797S (nM) 100 μM ATP, 100 μM ATP.
Where [7] appears, read: Km ATP, read-out: IC50 del19/C797S (nM) Km ATP.
[8] abbreviates: IC50 del19/T790M/C797S (nM) 100 μM ATP, 100 μM ATP.
Where [9] appears, read: IC50 L858R/C797S (nM) 100 μM ATP, 100 μM ATP.
Setting [10] is: Km ATP, read-out: IC50 L858R/C797S (nM) Km ATP.
[11] abbreviates: IC50 L858R/T790M/C797S (nM) 100 μM ATP, 100 μM ATP.
Setting [12] is: Km ATP, read-out: IC50 L858R/T790M/C797S (nM) Km ATP.
[13] abbreviates: IC50 WT (nM) 100 μM ATP, 100 μM ATP.
Where [14] appears, read: Km ATP, read-out: IC50 WT (nM) Km ATP.
Setting [15] is: Km ATP, read-out: IC50 del19/T790M/C797S (nM) Km ATP.

Molecules are shown by their SMILES. Like-named read-outs stand apart in the source and are kept apart here.

Chain of EGFR L858R/C797S (P00533 25-1210 C797S/L858R): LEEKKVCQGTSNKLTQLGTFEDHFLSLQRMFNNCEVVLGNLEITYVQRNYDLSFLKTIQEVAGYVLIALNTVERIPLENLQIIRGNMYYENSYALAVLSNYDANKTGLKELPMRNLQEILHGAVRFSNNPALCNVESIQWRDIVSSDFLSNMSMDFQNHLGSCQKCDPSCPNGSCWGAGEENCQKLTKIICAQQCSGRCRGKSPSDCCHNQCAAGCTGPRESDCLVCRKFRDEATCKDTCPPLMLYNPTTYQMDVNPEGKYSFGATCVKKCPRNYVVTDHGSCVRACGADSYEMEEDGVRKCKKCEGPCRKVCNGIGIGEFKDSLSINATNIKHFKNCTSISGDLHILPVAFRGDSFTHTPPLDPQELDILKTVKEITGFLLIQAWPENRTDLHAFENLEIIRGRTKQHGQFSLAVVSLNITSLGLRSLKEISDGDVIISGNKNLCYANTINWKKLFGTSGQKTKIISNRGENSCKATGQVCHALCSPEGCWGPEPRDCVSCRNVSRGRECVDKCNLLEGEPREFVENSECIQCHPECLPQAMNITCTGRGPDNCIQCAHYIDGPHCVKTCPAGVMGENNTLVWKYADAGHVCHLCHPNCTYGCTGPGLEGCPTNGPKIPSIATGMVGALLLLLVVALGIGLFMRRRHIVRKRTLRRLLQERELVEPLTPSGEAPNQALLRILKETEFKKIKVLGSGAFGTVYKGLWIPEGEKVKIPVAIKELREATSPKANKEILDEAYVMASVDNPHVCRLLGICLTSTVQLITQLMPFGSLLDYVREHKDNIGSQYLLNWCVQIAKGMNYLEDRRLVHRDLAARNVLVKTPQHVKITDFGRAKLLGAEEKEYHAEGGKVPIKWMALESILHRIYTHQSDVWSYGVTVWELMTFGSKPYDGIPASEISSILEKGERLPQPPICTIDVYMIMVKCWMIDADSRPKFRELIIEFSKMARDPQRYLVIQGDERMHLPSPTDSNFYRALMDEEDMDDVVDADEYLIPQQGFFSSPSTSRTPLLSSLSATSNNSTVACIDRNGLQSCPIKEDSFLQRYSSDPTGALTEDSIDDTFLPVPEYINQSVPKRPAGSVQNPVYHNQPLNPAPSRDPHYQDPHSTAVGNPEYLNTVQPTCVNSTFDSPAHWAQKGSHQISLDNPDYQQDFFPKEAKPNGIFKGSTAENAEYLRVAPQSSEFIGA
Chain of EGFR wildtype (WT) (P00533 25-1210): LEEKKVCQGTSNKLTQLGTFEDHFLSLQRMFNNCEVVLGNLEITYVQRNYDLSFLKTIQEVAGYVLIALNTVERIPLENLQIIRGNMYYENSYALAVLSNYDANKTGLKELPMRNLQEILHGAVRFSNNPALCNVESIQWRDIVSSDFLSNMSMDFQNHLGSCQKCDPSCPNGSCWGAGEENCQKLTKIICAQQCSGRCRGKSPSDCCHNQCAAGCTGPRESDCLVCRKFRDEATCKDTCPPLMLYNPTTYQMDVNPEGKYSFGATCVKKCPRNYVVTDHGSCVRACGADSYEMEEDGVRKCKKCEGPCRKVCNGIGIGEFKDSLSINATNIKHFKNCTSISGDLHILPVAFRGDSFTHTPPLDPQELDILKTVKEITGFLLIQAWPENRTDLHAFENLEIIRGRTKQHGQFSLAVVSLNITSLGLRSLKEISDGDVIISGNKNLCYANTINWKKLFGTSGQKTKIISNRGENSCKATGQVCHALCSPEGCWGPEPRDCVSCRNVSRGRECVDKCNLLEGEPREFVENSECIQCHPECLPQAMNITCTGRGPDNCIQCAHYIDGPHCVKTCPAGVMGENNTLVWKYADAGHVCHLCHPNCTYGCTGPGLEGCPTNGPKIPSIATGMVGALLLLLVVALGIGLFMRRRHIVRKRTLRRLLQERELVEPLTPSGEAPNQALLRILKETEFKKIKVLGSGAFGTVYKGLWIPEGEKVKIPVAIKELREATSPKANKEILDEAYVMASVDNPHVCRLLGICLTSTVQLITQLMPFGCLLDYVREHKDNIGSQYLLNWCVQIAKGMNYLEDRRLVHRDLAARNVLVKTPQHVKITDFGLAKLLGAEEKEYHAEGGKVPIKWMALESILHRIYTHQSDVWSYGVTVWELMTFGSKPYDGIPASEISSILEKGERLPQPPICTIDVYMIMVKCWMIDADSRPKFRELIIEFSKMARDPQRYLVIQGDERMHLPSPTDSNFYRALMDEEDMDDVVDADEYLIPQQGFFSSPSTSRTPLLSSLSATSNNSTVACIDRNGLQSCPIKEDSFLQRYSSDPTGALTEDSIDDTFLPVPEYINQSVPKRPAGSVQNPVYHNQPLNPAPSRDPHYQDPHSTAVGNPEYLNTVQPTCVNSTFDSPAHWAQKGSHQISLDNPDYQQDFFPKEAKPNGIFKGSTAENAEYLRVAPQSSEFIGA

For the compound `O=S(=O)(C1CC1)n1cc(-c2nccc(Nc3cc(N[C@H]4CC[C@H](CO)CC4)c(-c4ccn(C(F)F)n4)cn3)n2)cn1` [Example 198, ((1r,4r)-4-((2-((2-(1-(Cyclopropylsulfonyl)-1H-pyrazol-4-yl)pyrimidin-4-yl)amino)-5-(1-(difluoromethyl)-1H-pyrazol-3-yl)pyridin-4-yl)amino)cyclohexyl)methanol], the IC50 was determined as 2.2 nM in assay [1] (setting [6]); 0.7 nM in assay [1] (setting [7]); 0.3 nM in assay [2] (setting [8]); 3040 nM in assay [3] (setting [9]); 4.2 nM in assay [3] (setting [10]); 3.3 nM in assay [4] (setting [11]). Besides, the IC50 in assay [4] (setting [12]) was 0.1 nM; in assay [5] (setting [13]), above 10000 nM; in assay [5] (setting [14]), 84.7 nM.

With `CN[C@H]1CC[C@@H](Oc2cc(Nc3ccnc(-c4cnn(S(=O)(=O)C5CC5)c4)n3)ncc2-c2ccn(C(F)F)n2)CC1` [Example 65, 2-(1-(Cyclopropylsulfonyl)-1H-pyrazol-4-yl)-N-(5-(1-(difluoromethyl)-1H-pyrazol-3-yl)-4-(((1s,4s)-4-(methylamino)cyclohexyl)oxy)pyridin-2-yl)pyrimidin-4-amine], the IC50 amounted to 54.5 nM in assay [1] (setting [6]); 33.5 nM in assay [1] (setting [7]); 1.2 nM in assay [2] (setting [8]); 0.8 nM in assay [2] (setting [15]); 622 nM in assay [3] (setting [9]); 33.5 nM in assay [3] (setting [10]). Also, the IC50 was 4.2 nM in assay [4] (setting [11]), 0.6 nM in assay [4] (setting [12]), above 10000 nM in assay [5] (setting [13]) and 149 nM in assay [5] (setting [14]).

On to `CN(C)C[C@H]1CC[C@H](CNc2cc(Nc3ccnc(-c4cnn(S(=O)(=O)C5CC5)c4)n3)ncc2-c2ccn(C(F)F)n2)CC1` [Example 100, N^2-(2-(1-(Cyclopropylsulfonyl)-1H-pyrazol-4-yl)pyrimidin-4-yl)-5-(1-(difluoromethyl)-1H-pyrazol-3-yl)-N^4-(((1r,4r)-4-((dimethylamino)methyl)cyclohexyl)methyl)pyridine-2,4-diamine], for which the IC50 in assay [1] (setting [6]) was 0.4 nM; in assay [1] (setting [7]), 0.5 nM; in assay [2] (setting [8]), 0.6 nM; in assay [2] (setting [15]), 0.5 nM; in assay [3] (setting [9]), 1.4 nM; in assay [3] (setting [10]) it was 0.3 nM. The IC50 in assay [4] (setting [11]) came to 0.5 nM; in assay [4] (setting [12]), 0.3 nM; in assay [5] (setting [13]), 582 nM; in assay [5] (setting [14]), 1 nM.

`COCCn1cc(-c2nccc(Nc3cc(N[C@H]4CC[C@@](C)(O)CC4)c(-c4ccn(C(F)F)n4)cn3)n2)cn1` [Example 138, (1s,4s)-4-((5-(1-(Difluoromethyl)-1H-pyrazol-3-yl)-2-((2-(1-(2-methoxyethyl)-1H-pyrazol-4-yl)pyrimidin-4-yl)amino)pyridin-4-yl)amino)-1-methylcyclohexan-1-ol]: the IC50 in assay [1] (setting [6]) was 47.6 nM; in assay [1] (setting [7]), 45.1 nM; in assay [2] (setting [8]), 0.4 nM; in assay [2] (setting [15]), 0.2 nM; in assay [3] (setting [9]) it was 295 nM; in assay [3] (setting [10]), 26.9 nM. Besides, the IC50 in assay [4] (setting [11]) was 0.8 nM; in assay [4] (setting [12]), 0.1 nM; in assay [5] (setting [13]) it was above 10000 nM; in assay [5] (setting [14]), 77.7 nM.

Consider `COCn1ccc(-c2cnc(Nc3ccnc(-c4cnn(S(=O)(=O)C5CC5)c4)n3)cc2N[C@H]2CC[C@@H](C(C)(C)O)CC2)n1` [Example 299, 2-((1s,4s)-4-((2-((2-(1-(Cyclopropylsulfonyl)-1H-pyrazol-4-yl)pyrimidin-4-yl)amino)-5-(1-(methoxymethyl)-1H-pyrazol-3-yl)pyridin-4-yl)amino)cyclohexyl)propan-2-ol], for which the IC50 in assay [1] (setting [7]) worked out at 4.1 nM; in assay [2] (setting [15]), 1.1 nM; in assay [3] (setting [10]), 0.5 nM; in assay [4] (setting [12]), 0.3 nM; in assay [5] (setting [14]), 5 nM.

Regarding `Cn1ccc(-c2cnc(Nc3ccnc(-c4cnn(S(=O)(=O)C5CC5)c4)n3)cc2NC[C@H]2CC[C@H](O)CC2)n1` [Example 47, (1r,4r)-4-(((2-((2-(1-(Cyclopropylsulfonyl)-1H-pyrazol-4-yl)pyrimidin-4-yl)amino)-5-(1-methyl-1H-pyrazol-3-yl)pyridin-4-yl)amino)methyl)cyclohexan-1-ol], the IC50 worked out at 0.8 nM in assay [1] (setting [6]); 0.5 nM in assay [1] (setting [7]); 0.6 nM in assay [2] (setting [8]); 0.6 nM in assay [2] (setting [15]); 6.5 nM in assay [3] (setting [9]); 0.8 nM in assay [3] (setting [10]). Moreover, the IC50 is 0.5 nM in assay [4] (setting [11]), 0.1 nM in assay [4] (setting [12]), above 10000 nM in assay [5] (setting [13]) and 4.5 nM in assay [5] (setting [14]).

On to `Cn1ccc(-c2cnc(Nc3ccnc(-c4cnn(S(=O)(=O)C5CC5)c4)n3)cc2NCC2(CO)COC2)n1` [Example 228, (3-(((2-((2-(1-(Cyclopropylsulfonyl)-1H-pyrazol-4-yl)pyrimidin-4-yl)amino)-5-(1-methyl-1H-pyrazol-3-yl)pyridin-4-yl)amino)methyl)oxetan-3-yl)methanol], for which the IC50 in assay [1] (setting [6]) was found to be 0.8 nM; in assay [1] (setting [7]), 0.6 nM; in assay [2] (setting [8]), 0.2 nM; in assay [2] (setting [15]) it was 0.1 nM; in assay [3] (setting [9]), 24.5 nM; in assay [3] (setting [10]), 0.9 nM. The IC50 turned out to be 0.2 nM in assay [4] (setting [11]), 0.1 nM in assay [4] (setting [12]), 2360 nM in assay [5] (setting [13]) and 3.3 nM in assay [5] (setting [14]).

Consider `CN(C)C[C@H]1CC[C@H](CNc2cc(Nc3ccnc(-c4cnn(S(=O)(=O)C5CC5)c4)n3)ncc2-c2csc(C(F)(F)F)n2)CC1` [Example 101, N^2-(2-(1-(Cyclopropylsulfonyl)-1H-pyrazol-4-yl)pyrimidin-4-yl)-N^4-(((1r,4r)-4-((dimethylamino)methyl)cyclohexyl)methyl)-5-(2-(trifluoromethyl)thiazol-4-yl)pyridine-2,4-diamine], for which the IC50 in assay [1] (setting [6]) worked out at 0.4 nM; in assay [1] (setting [7]), 0.4 nM; in assay [2] (setting [8]) it was 0.3 nM; in assay [2] (setting [15]), 0.3 nM; in assay [3] (setting [9]), 3.8 nM; in assay [3] (setting [10]), 0.8 nM. The figures for the IC50 in assay [4] (setting [11]), in assay [4] (setting [12]) and in assay [5] (setting [13]) were 0.3 nM, 0.1 nM and 828 nM, respectively.

As to `O=S(=O)(C1CC1)n1cc(-c2cc(Nc3ncc(-c4ccn(CCC(F)(F)F)n4)c(N[C@H]4CC[C@@H](F)CC4)n3)ccn2)cn1` [Example 367, N^2-(2-(1-(Cyclopropylsulfonyl)-1H-pyrazol-4-yl)pyridin-4-yl)-N^4-((1s,4s)-4-fluorocyclohexyl)-5-(1-(3,3,3-trifluoropropyl)-1H-pyrazol-3-yl)pyrimidine-2,4-diamine], the IC50 stood at 391 nM in assay [1] (Km ATP, read-out: IC50 del19/C797S, Km ATP); 17.1 nM in assay [2] (Km ATP, read-out: IC50 del19/T790M/C797S, Km ATP); 251 nM in assay [3] (Km ATP, read-out: IC50 L858R/C797S, Km ATP); 7.2 nM in assay [4] (Km ATP, read-out: IC50 L858R/T790M/C797S, Km ATP); 5000 nM in assay [5] (Km ATP, read-out: IC50 WT, Km ATP).

Turning to `O=S(=O)(C1CC1)n1cc(-c2nccc(Nc3cc(NC4CCCC(NCCF)C4)c(-c4ccn(C(F)F)n4)cn3)n2)cn1` (stereo not shown) [Example 194, N^2-(2-(1-(Cyclopropylsulfonyl)-1H-pyrazol-4-yl)pyrimidin-4-yl)-5-(1-(difluoromethyl)-1H-pyrazol-3-yl)-N^4-(3-((2-fluoroethyl)amino)cyclohexyl)pyridine-2,4-diamine], the IC50 in assay [1] (setting [6]) was determined as 7.5 nM; in assay [1] (setting [7]) it was 4.4 nM; in assay [2] (setting [8]), 0.2 nM; in assay [2] (setting [15]), 0.3 nM; in assay [3] (setting [9]) it was 32.1 nM; in assay [3] (setting [10]), 5.8 nM. The IC50 in assay [4] (setting [11]) is 0.6 nM; in assay [4] (setting [12]) it was 0.1 nM; in assay [5] (setting [13]), above 10000 nM; in assay [5] (setting [14]), 19.9 nM.

Consider `O=S(=O)(C1CC1)n1cc(-c2nccc(Nc3cc(NC[C@H]4C[C@H](O)C4)c(-c4ccn(C(F)F)n4)cn3)n2)cn1` [Example 34, (1r,3r)-3-(((2-((2-(1-(Cyclopropylsulfonyl)-1H-pyrazol-4-yl)pyrimidin-4-yl)amino)-5-(1-(difluoromethyl)-1H-pyrazol-3-yl)pyridin-4-yl)amino)methyl)cyclobutan-1-ol], for which the IC50 amounted to 4.2 nM in assay [1] (setting [6]); 1.9 nM in assay [1] (setting [7]); 0.9 nM in assay [2] (setting [8]); 0.4 nM in assay [2] (setting [15]); 53.3 nM in assay [3] (setting [9]); 2 nM in assay [3] (setting [10]). Besides, the IC50 is 1.6 nM in assay [4] (setting [11]), 0.2 nM in assay [4] (setting [12]), above 10000 nM in assay [5] (setting [13]) and 19.4 nM in assay [5] (setting [14]).

For `COc1ccc(-c2nccc(Nc3cc(N[C@H]4CC[C@@](C)(O)CC4)c(-c4ccn(C(F)F)n4)cn3)n2)c(F)n1` [Example 166, (1s,4s)-4-((5-(1-(Difluoromethyl)-1H-pyrazol-3-yl)-2-((2-(2-fluoro-6-methoxypyridin-3-yl)pyrimidin-4-yl)amino)pyridin-4-yl)amino)-1-methylcyclohexan-1-ol], the IC50 stood at 737 nM in assay [1] (setting [7]); 7.2 nM in assay [2] (setting [15]); 198 nM in assay [3] (setting [10]); 3.6 nM in assay [4] (setting [12]); 503 nM in assay [5] (setting [14]).

Source of the values: US12258327B2, “5-membered heteroaryl-containing aminopyridine compounds as EGFR inhibitors” (YUHAN CORPORATION, priority 2021, dated 2025).
